{"source": "patent US20230364277A1", "about": "“E-SELECTIN TARGETING AGENTS” (GLYCOMIMETICS, INC., priority 2020, published 2023)", "tested_on": "E-selectin expression on HUVEC", "experiment": "Induction of E-selectin expression on HUVEC by TNFα (flow cytometry, anti-E-selectin antibody)", "type": "cell-based, human", "conditions": "with TNFα stimulation", "protocol": "Subsequent studies were performed to investigate the ability of liposomes containing Compound 3 to recognize and bind to cells under conditions where E-selectin is expressed. For these liposomes with and without Compound 3 were prepared with a fluorescent phospholipid membrane marker (Composition 4 and Composition 3, respectively) allowing for detection by flow cytometry. Liposomes were incubated for 60 min at 37° C. with cultures of human umbilical vein endothelial cells (HUVEC) pretreated in media deficient in TNFα or supplemented with TNFα to induce E-selectin expression. Association of fluorescein labeled liposomes with cell preparations by flow cytometry was then determined.\nThe flow cytometry-based assay used liposomes containing 0% or 5% Compound 3 (L4 and L5, respectively). Initial studies defined that only TNFα-stimulated HUVEC but not unstimulated HUVEC express E-selectin."}
{"substance": "TNFα", "values": [{"measurement": "HUVEC express E-selectin", "result": 88.696, "unit": "%"}]}
